Test results from patent US20250059141A1, “TLR MODULATOR AND USE THEREOF” (DUALITY BIOLOGICS (SUZHOU) CO., LTD., priority 2021, published 2025).

The molecules below were run on TNF-α production in human PBMCs (assay: Induction of TNF-α in human PBMCs (ELISA)). Conditions: PBMC, 24 h, serial 3-fold dilutions, read-out: PBMC assay TNFa EC50.
Type: cell-based
Procedure: In this example, the induction activity of the compounds of the present application on human PBMCs for TNF-α and IFN-α production was assessed in human PBMCs (human peripheral blood mononuclear cells). The human PBMCs were purchased from Shanghai Saily Biotechnology Co., Ltd. (Cat. No. XFB—HP100B). PBMC cells were treated with the compounds. The compounds of the present application are diluted in DMSO, for example, to about 15 mM. The reference compound was added to the plates in sequence after diluted to 5 mg/mL. The compounds were serially 3- or 4-fold diluted to 8 concentrations and added to plates in duplicate (Table 2-1 for serial 3-fold dilutions and Table 2-2 for serial 4-fold dilutions). For the negative control wells, DMSO was added at 0.4 μL/well, and a 5 mg/mL reference compound solution was added to the positive control wells at 0.4 μL/well. The final concentration of DMSO was 0.2%. Frozen human PBMCs in cryopreservation tubes were quickly thawed in a 37° C. water bath and transferred into 50-mL centrifuge tubes. Prewarmed RPMI1640 medium was gradually added and the mixture was well mixed and centrifuged for 15 min before the supernatant was discarded. The cells were resuspended in a culture medium and counted. The cell suspension was adjusted to 2.5×10^6 cells/mL with the culture medium. Diluted cells were added at 200 μL/500,000 cells/well in 96-well plates containing the compounds. The cell plates were incubated at 37° C./5% CO2 for 24 h.
The plate was then washed thrice. […] Termination of reaction: The reaction was terminated by quickly adding the stop solution at 100 μL/well. Plate reading: The reading at wavelength 450 nm was detected by an M2e instrument within 10 min after the termination.
Compound activity data analysis: The OD450 values were converted to TNF-α and IFN-α contents by GraphPad Prism software analysis and fitted to give dose-response curves of the compounds. The EC50 values for the compounds were calculated, where the Emax values are the maximal values for TNF-α and IFN-α.

SMILES	EC50 [nM]
CCCN(OCc1ccc(N)cc1)C(=O)C1=Cc2ccc(-c3cncc(S(N)(=O)=O)c3)cc2N=C(N)C1 [Compound 36]	12.2
CCCN(OCc1ccc(N)cc1)C(=O)C1=Cc2ccc(-c3cncc(N)c3)cc2N=C(N)C1 [Compound 52]	8.61
CCCN(OCc1ccc(N)cc1)C(=O)C1=Cc2ccc(-c3ccc(C#N)nc3)cc2N=C(N)C1 [Compound 51]	17.3
CCCN(OCc1ccc(N)cc1)C(=O)C1=Cc2ccc(-c3ccc4c(c3)C(=O)OC4)cc2N=C(N)C1 [Compound 43]	8.04
CCCN(OCc1ccc(N)cc1)C(=O)C1=Cc2ccc(-c3ccc(N4CCOCC4)nc3)cc2N=C(N)C1 [Compound 55]	33.5
CCCN(OCc1ccc(N)cc1)C(=O)C1=Cc2ccc(-c3cccc(S(N)(=O)=O)c3)cc2N=C(N)C1 [Compound 35]	5
CCCN(OCc1ccc(N)cc1)C(=O)C1=Cc2ccc(C(=O)Nc3cccnc3)cc2N=C(N)C1 [Compound 40]	9.08
CCCN(OCc1ccc(N)cc1)C(=O)C1=Cc2ccc(-c3ccc(C(=O)N4CC[C@@H](O)C4)cc3)cc2N=C(N)C1 [Compound 42]	37

Same assay, conditions: PBMC, 24 h, serial 4-fold dilutions, class symbols, read-out: PBMC assay TNFa EC50

SMILES	EC50 [nM]
CCCN(OCc1ccc(N)cc1)C(=O)C1=Cc2ccc(-c3cnc4c(c3)C(=O)OC4)nc2N=C(N)C1 [Compound 63]	≤ 10
CCCN(OCc1ccc(N)cc1)C(=O)C1=Cc2ccc(C(=O)N3CC4(COC4)C3)cc2N=C(N)C1 [Compound 95]	≤ 10
CCCN(OCc1ccc(N)cc1)C(=O)C1=Cc2ccc(C(=O)N3CCC(O)C3)cc2N=C(N)C1 (stereo not shown) [Compound 46]	10 to 50
CCCN(OCc1ccc(N)cc1)C(=O)C1=Cc2ccc(C(=O)N3CCN(C)CC3)cc2N=C(N)C1 [Compound 93]	≤ 10
NC1=Nc2cc(-c3cncc(CO)c3)ccc2C=C(C(=O)N(CCC(F)(F)F)OCc2ccc(N)cc2)C1 [Compound 58]	≤ 10
CCCN(OCc1ccc(N)cc1)C(=O)C1=Cc2ccc(C(=O)Nc3ncco3)cc2N=C(N)C1 [Compound 87]	≤ 10
CCCN(OCc1ccc(N)cc1)C(=O)C1=Cc2ccc(C(=O)NC3COC3)cc2N=C(N)C1 [Compound 81]	10 to 50
CCCN(OCc1ccc(N)cc1)C(=O)C1=Cc2ccc(C(=O)N3CCOC(CO)C3)cc2N=C(N)C1 (stereo not shown) [Compound 47]	10 to 50
CCCN(OCc1ccc(N)cc1)C(=O)C1=Cc2ccc(-c3cncc(CO)c3)nc2N=C(N)C1 [Compound 62]	≤ 10
CCCN(OCc1ccc(N)cc1)C(=O)C1=Cc2ccc(-c3cncc(C(F)(F)F)c3)cc2N=C(N)C1 [Compound 53]	10 to 50
CCCN(OCc1ccc(N)cc1)C(=O)C1=Cc2ccc(-c3cncc(C(=O)O)c3)cc2N=C(N)C1 [Compound 32]	10 to 50
CCCN(OCc1ccc(N)cc1)C(=O)C1=Cc2ccc(-c3cccc(S(=O)(=O)N4CCC(O)CC4)c3)cc2N=C(N)C1 [Compound 66]	≤ 10
CCCN(OCc1ccc(N)cc1)C(=O)C1=Cc2ccc(C(=O)Nc3ccc4c(c3)CNC4)cc2N=C(N)C1 [Compound 90]	≤ 10
CCCN(OCc1ccc(N)cc1)C(=O)C1=Cc2ccc(-c3ccc(C(=O)N4CC[C@@H](O)C4)cc3)cc2N=C(N)C1 [Compound 42]	10 to 50

What follows are molecules tested against T1, hTLR7 (human Toll-like receptor 7) (Homo sapiens, UniProt Q9NYK1) (assay: HEK-Blue hTLR7 reporter assay (QUANTI-Blue, OD650)). Conditions: HEK-Blue hTLR7 cells, 24 h; class symbols; read-out: Reporter assay TLR7 EC50.
T1 construct: host or cells: HEK-Blue hTLR7 (HEK293-derived reporter cells)
T1 sequence (Q9NYK1 27-1049): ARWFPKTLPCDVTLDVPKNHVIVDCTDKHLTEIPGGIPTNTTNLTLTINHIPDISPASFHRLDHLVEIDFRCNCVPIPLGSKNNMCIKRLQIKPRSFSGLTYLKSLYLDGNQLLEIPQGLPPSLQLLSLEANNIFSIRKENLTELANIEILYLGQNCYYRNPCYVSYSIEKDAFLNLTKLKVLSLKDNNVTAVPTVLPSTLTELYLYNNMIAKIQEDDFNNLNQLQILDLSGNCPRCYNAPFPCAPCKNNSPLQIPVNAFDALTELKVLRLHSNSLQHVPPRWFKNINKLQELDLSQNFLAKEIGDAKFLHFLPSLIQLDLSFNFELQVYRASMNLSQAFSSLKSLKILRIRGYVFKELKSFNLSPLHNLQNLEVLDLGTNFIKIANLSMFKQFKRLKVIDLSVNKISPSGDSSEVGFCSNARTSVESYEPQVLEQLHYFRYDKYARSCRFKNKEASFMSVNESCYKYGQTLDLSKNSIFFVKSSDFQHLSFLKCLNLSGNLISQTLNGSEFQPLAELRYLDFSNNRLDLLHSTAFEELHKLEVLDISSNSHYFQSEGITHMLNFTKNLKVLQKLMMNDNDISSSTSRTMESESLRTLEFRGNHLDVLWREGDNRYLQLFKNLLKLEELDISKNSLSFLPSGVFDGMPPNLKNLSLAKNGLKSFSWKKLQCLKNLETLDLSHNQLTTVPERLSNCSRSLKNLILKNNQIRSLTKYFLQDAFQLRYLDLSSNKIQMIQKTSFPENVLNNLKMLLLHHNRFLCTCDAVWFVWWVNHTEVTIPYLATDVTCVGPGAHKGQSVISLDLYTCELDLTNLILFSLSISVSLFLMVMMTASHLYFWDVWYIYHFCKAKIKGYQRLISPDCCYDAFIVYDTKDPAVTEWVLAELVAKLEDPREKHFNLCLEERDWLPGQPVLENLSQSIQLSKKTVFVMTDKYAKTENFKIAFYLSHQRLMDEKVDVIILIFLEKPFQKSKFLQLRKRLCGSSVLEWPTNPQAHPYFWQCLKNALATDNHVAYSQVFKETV
Type: cell-based
Procedure: In this example, the agonistic activity of the compounds of the present application on hTLR7 (human Toll-like receptor 7) and hTLR8 (human Toll-like receptor 8) was assessed; the induction activity of the compounds on human PBMCs for TNF-α and IFN-α production was assessed in human PBMCs (human peripheral blood mononuclear cells).
All compounds were formulated in DMSO into 30 mM stock solutions and preserved at 4° C. The reference compound ([…], Cat. No. tlrl-r848-5) was purchased from InvivoGen and formulated into a 5 mg/mL stock solution in DMSO and preserved in a freezer at −20° C. HEK-Blue hTLR7 and HEK-Blue hTLR8 cell lines were purchased from InvivoGen, and human PBMCs were purchased from Shanghai Saily Biotechnology Co., Ltd. (Cat. No. XFB—HP100B).
The major instruments used in this study were multifunctional microplate reader Flexstation III (Molecular Device), Envision (Perkin Elmer), M2e (Molecular Device), and Echo555 (Labcyte). 2.1 Agonistic activity of compounds on hTLR7 (human Toll-like receptor 7) and hTLR8 (human Toll-like receptor 8)
Compound dilution: The compounds of the present application are diluted in DMSO, for example, to about 15 mM. The reference compound was added to the plates in sequence after dilution. The compounds were serially 3-fold diluted to 10 concentrations and added to 96-well plates in duplicate.
For the negative control wells, DMSO was added at 0.2 μL/well, and the reference compound was added to the positive control wells. The final concentration of DMSO was 0.2%.
Cell plating: When an 80% confluence of HEK Blue hTLR7&8 cells in the culture flask was observed under a microscope, the culture medium was discarded, 10 mL of detection medium was added, and the cells were separated by pipetting. The cells were counted on a cytometer and diluted to 500,000 cells/mL. The cells were plated at 100 μL/50,000 cells/well in the 96-well plates containing the compounds. The compounds and cells were co-incubated at 37° C. in a 5% CO2 incubator for 24 hours.
Compound activity detection: 20 μL of cell supernatant was taken from each well and added to a plate containing QUANTI-Blue™ reagent at 180 μL/well. The plate was incubated at 37° C. for 1 hour, and the absorbance at 650 nm (OD650) was measured on the multifunctional microplate reader Flexstation III.
Compound activity data analysis: The OD650 values were analyzed by GraphPad Prism software and fitted to give dose-response curves of the compounds. The EC50 values of compounds were calculated.

SMILES	EC50 [nM]
CCCN(OCc1ccc(N)cc1)C(=O)C1=Cc2ccc(-c3cnc4c(c3)C(=O)OC4)nc2N=C(N)C1 [Compound 63]	100 to 1000
CCCN(OCc1ccc(N)cc1)C(=O)C1=Cc2ccc(C(=O)N3CC4(COC4)C3)cc2N=C(N)C1 [Compound 95]	> 1000
CCCN(OCc1ccc(N)cc1)C(=O)C1=Cc2ccc(C(=O)N3CCC(O)C3)cc2N=C(N)C1 (stereo not shown) [Compound 46]	> 1000
CCCN(OCc1ccc(N)cc1)C(=O)C1=Cc2ccc(C(=O)N3CCN(C)CC3)cc2N=C(N)C1 [Compound 93]	> 1000
NC1=Nc2cc(-c3cncc(CO)c3)ccc2C=C(C(=O)N(CCC(F)(F)F)OCc2ccc(N)cc2)C1 [Compound 58]	100 to 1000
CCCN(OCc1ccc(N)cc1)C(=O)C1=Cc2ccc(C(=O)Nc3ncco3)cc2N=C(N)C1 [Compound 87]	> 1000
CCCN(OCc1ccc(N)cc1)C(=O)C1=Cc2ccc(C(=O)NC3COC3)cc2N=C(N)C1 [Compound 81]	> 1000
CCCN(OCc1ccc(N)cc1)C(=O)C1=Cc2ccc(C(=O)N3CCOC(CO)C3)cc2N=C(N)C1 (stereo not shown) [Compound 47]	> 1000
CCCN(OCc1ccc(N)cc1)C(=O)C1=Cc2ccc(-c3cncc(CO)c3)nc2N=C(N)C1 [Compound 62]	100 to 1000
CCCN(OCc1ccc(N)cc1)C(=O)C1=Cc2ccc(-c3cncc(C(F)(F)F)c3)cc2N=C(N)C1 [Compound 53]	100 to 1000
CCCN(OCc1ccc(N)cc1)C(=O)C1=Cc2ccc(-c3cncc(C(=O)O)c3)cc2N=C(N)C1 [Compound 32]	> 1000
CCCN(OCc1ccc(N)cc1)C(=O)C1=Cc2ccc(-c3cccc(S(=O)(=O)N4CCC(O)CC4)c3)cc2N=C(N)C1 [Compound 66]	100 to 1000
CCCN(OCc1ccc(N)cc1)C(=O)C1=Cc2ccc(C(=O)Nc3ccc4c(c3)CNC4)cc2N=C(N)C1 [Compound 90]	> 1000
CCCN(OCc1ccc(N)cc1)C(=O)C1=Cc2ccc(-c3ccc(C(=O)N4CC[C@@H](O)C4)cc3)cc2N=C(N)C1 [Compound 42]	> 1000

Same assay, conditions: HEK-Blue hTLR7 cells, 24 h; read-out: Reporter assay TLR7 EC50

SMILES	EC50 [nM]
CCCN(OCc1ccc(N)cc1)C(=O)C1=Cc2ccc(-c3cncc(S(N)(=O)=O)c3)cc2N=C(N)C1 [Compound 36]	1080
CCCN(OCc1ccc(N)cc1)C(=O)C1=Cc2ccc(-c3cncc(N)c3)cc2N=C(N)C1 [Compound 52]	355
CCCN(OCc1ccc(N)cc1)C(=O)C1=Cc2ccc(-c3ccc(C#N)nc3)cc2N=C(N)C1 [Compound 51]	428
CCCN(OCc1ccc(N)cc1)C(=O)C1=Cc2ccc(-c3ccc4c(c3)C(=O)OC4)cc2N=C(N)C1 [Compound 43]	180
CCCN(OCc1ccc(N)cc1)C(=O)C1=Cc2ccc(-c3ccc(N4CCOCC4)nc3)cc2N=C(N)C1 [Compound 55]	685
CCCN(OCc1ccc(N)cc1)C(=O)C1=Cc2ccc(-c3cccc(S(N)(=O)=O)c3)cc2N=C(N)C1 [Compound 35]	758
CCCN(OCc1ccc(N)cc1)C(=O)C1=Cc2ccc(C(=O)Nc3cccnc3)cc2N=C(N)C1 [Compound 40]	11700
